The record followed here is patent publication US11136317B2, “NADPH oxidase 4 inhibitors” (ACTELION PHARMACEUTICALS LTD, priority 2015, dated 2021).

For the test, the target named is T1, human NOX4 (Homo sapiens, UniProt Q9NPH5).
T1 construct: The full-length human NOX4 (NM_016931.3) transcript was cloned; expressed in transfected cells
T1 sequence (Q9NPH5 1-578): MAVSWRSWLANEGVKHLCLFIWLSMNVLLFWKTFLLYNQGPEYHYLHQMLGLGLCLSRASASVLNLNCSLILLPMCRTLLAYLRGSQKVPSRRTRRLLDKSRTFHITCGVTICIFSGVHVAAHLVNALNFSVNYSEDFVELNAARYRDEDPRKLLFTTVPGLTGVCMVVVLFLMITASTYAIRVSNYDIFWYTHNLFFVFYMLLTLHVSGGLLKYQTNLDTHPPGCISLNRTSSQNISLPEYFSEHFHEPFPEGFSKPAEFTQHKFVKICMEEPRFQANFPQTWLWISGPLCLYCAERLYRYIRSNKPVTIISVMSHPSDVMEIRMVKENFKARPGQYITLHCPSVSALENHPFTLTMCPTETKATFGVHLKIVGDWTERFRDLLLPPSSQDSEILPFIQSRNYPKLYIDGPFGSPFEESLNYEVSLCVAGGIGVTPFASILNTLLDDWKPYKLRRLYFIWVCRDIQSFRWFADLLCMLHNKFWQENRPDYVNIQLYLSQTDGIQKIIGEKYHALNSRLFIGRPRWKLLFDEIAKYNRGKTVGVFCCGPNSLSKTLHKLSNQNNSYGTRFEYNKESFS
T1 sequence (P13498 1-195 partner): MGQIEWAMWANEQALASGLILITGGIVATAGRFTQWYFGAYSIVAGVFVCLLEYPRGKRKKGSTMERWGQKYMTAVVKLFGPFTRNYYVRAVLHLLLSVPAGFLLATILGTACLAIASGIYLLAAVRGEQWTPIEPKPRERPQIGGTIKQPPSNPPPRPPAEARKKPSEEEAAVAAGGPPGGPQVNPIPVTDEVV
In words: Amplex Red activity assay (cellular H2O2 formation in hNOX4 T-REx-293 cells). It counts as cell-based. The conditions noted are these: tet-induced 24 h, extracellular H2O2 by Amplex Red, 60 min 25° C., geometric mean if determined several times. The gist of the method:
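Tet-induced (1 μg/mL, 24 h) HEK293 T-REx cells stably expressing full-length human NOX4, 20 000 cells/well, exposed to compounds (10 concentrations, 50 μM to 100 nM; 1.25% DMSO) for 60 min at 25°C. Extracellular H2O2 detected by Amplex Red resorufin fluorescence (ex 550/em 600 nm) versus vehicle; IC50 calculated.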
The term IC50 denotes the concentration at which inhibition is half-maximal. `O=C(Nc1ccc2c(c1)CCO2)c1ccc2oc(N3CCOCC3)nc2c1` [Example 77, 2-Morpholin-4-yl-benzooxazole-5-carboxylic acid (2,3-dihydro-benzofuran-5-yl)-amide]: the IC50 was determined as 548 nM.

In the case of `CCN(CC)c1nc2cc(C(=O)Nc3ccc4c(c3)CCO4)ccc2o1` [Example 78, 2-Diethylamino-benzooxazole-5-carboxylic acid (2,3-dihydro-benzofuran-5-yl)-amide], the IC50 was determined as 417 nM.

As for `O=C(Nc1ccc2c(c1)CCO2)c1ccc2oc(N3CCCC3)nc2c1` [Example 79, 2-Pyrrolidin-1-yl-benzooxazole-5-carboxylic acid (2,3-dihydro-benzofuran-5-yl)-amide], the IC50 was 585 nM.

Regarding `O=C(Nc1ccc2sc(N3CCCCC3)nc2c1)c1ccc2c(c1)CCO2` [Example 81, 2,3-Dihydro-benzofuran-5-carboxylic acid (2-piperidin-1-yl-benzothiazol-5-yl)-amide], the IC50 stood at 2450 nM.

For the compound `O=C(Nc1ccc2sc(N3CCOCC3)nc2c1)c1ccc2c(c1)CCO2` [Example 82, 2,3-Dihydro-benzofuran-5-carboxylic acid (2-morpholin-4-yl-benzothiazol-5-yl)-amide], the IC50 came to 2350 nM.

On to `CN1CCN(c2nc3cc(NC(=O)c4ccc5c(c4)CCO5)ccc3s2)CC1` [Example 83, 2,3-Dihydro-benzofuran-5-carboxylic acid [2-(4-methyl-piperazin-1-yl)-benzothiazol-5-yl]-amide], for which the IC50 was 3540 nM.

On to `O=C(Nc1ccc2sc(N3CCCC3)nc2c1)c1ccc2c(c1)CCO2` [Example 84, 2,3-Dihydro-benzofuran-5-carboxylic acid (2-pyrrolidin-1-yl-benzothiazol-5-yl)-amide], for which the IC50 worked out at 1320 nM.

With `CCN(CC)c1nc2cc(NC(=O)c3ccc4c(c3)CCO4)ccc2s1` [Example 85, 2,3-Dihydro-benzofuran-5-carboxylic acid (2-diethylamino-benzothiazol-5-yl)-amide], the half-maximal inhibitory concentration (IC50) amounted to 1650 nM.

On to `O=C(Nc1ccc2sc(N3CC(F)(F)C3)nc2c1)c1ccc2c(c1)CCO2` [Example 87, 2,3-Dihydro-benzofuran-5-carboxylic acid [2-(3,3-difluoro-azetidin-1-yl)-benzothiazol-5-yl]-amide], for which the IC50 was 4100 nM.

In the case of `O=C(Nc1ccc2sc(N3CCC(F)(F)C3)nc2c1)c1ccc2c(c1)CCO2` [Example 88, 2,3-Dihydro-benzofuran-5-carboxylic acid [2-(3,3-difluoro-pyrrolidin-1-yl)-benzothiazol-5-yl]-amide], the IC50 came out at 3660 nM.

`O=C(Nc1ccc2sc(N3CCCC(F)(F)C3)nc2c1)c1ccc2c(c1)CCO2` [Example 89, 2,3-Dihydro-benzofuran-5-carboxylic acid [2-(3,3-difluoro-piperidin-1-yl)-benzothiazol-5-yl]-amide]: the IC50 worked out at 1920 nM.

Take `O=C(Nc1ccc2sc(N3CCC34COC4)nc2c1)c1ccc2c(c1)CCO2` [Example 90, 2,3-Dihydro-benzofuran-5-carboxylic acid [2-(6-oxa-1-aza-spiro[3.3]hept-1-yl)-benzothiazol-5-yl]-amide]: the IC50 is 361 nM.

Regarding `O=C(Nc1ccc2sc(N3CC4(COC4)C3)nc2c1)c1ccc2c(c1)CCO2` [Example 91, 2,3-Dihydro-benzofuran-5-carboxylic acid [2-(2-oxa-6-aza-spiro[3.3]hept-6-yl)-benzothiazol-5-yl]-amide], the IC50 amounted to 4330 nM.

On to `O=C(Nc1ccc2sc(N3CCS(=O)(=O)CC3)nc2c1)c1ccc2c(c1)CCO2` [Example 92, 2,3-Dihydro-benzofuran-5-carboxylic acid [2-(1,1-dioxo-1l6-thiomorpholin-4-yl)-benzothiazol-5-yl]-amide], for which the IC50 worked out at 2460 nM.

In the case of `CN(C)CCN(C)c1nc2cc(NC(=O)c3ccc4c(c3)CCO4)ccc2s1` [Example 93, 2,3-Dihydro-benzofuran-5-carboxylic acid {2-[(2-dimethylamino-ethyl)-methyl-amino]-benzothiazol-5-yl}-amide], the IC50 amounted to 10300 nM.

Regarding `COC1CCN(c2nc3cc(NC(=O)c4ccc5c(c4)CCO5)ccc3s2)C1` (centres unmarked) [Example 94, 2,3-Dihydro-benzofuran-5-carboxylic acid [2-(3-methoxy-pyrrolidin-1-yl)-benzothiazol-5-yl]-amide], the IC50 came to 3290 nM.

Take `COC1CCN(c2nc3cc(NC(=O)c4ccc5c(c4)CCO5)ccc3s2)CC1` [Example 95, 2,3-Dihydro-benzofuran-5-carboxylic acid [2-(4-methoxy-piperidin-1-yl)-benzothiazol-5-yl]-amide]: the IC50 was 2140 nM.

In the case of `CC1(O)CN(c2nc3cc(NC(=O)c4ccc5c(c4)CCO5)ccc3s2)C1` [Example 96, 2,3-Dihydro-benzofuran-5-carboxylic acid [2-(3-hydroxy-3-methyl-azetidin-1-yl)-benzothiazol-5-yl]-amide], the IC50 was 2670 nM.

For `CN(C)C1CCN(c2nc3cc(NC(=O)c4ccc5c(c4)CCO5)ccc3s2)CC1` [Example 97, 2,3-Dihydro-benzofuran-5-carboxylic acid [2-(4-dimethylamino-piperidin-1-yl)-benzothiazol-5-yl]-amide], the IC50 was determined as 6300 nM.

Turning to `O=C(Nc1ccc2sc(N3CC[C@H](O)C3)nc2c1)c1ccc2c(c1)CCO2` [Example 98, (S)—N-(2-(3-hydroxypyrrolidin-1-yl)benzo[d]thiazol-5-yl)-2,3-dihydrobenzofuran-5-carboxamide], the IC50 turned out to be 2530 nM.

As for `O=C(Nc1ccc2sc(N3CCC4(CC3)COC4)nc2c1)c1ccc2c(c1)CCO2` [Example 99, 2,3-Dihydro-benzofuran-5-carboxylic acid [2-(2-oxa-7-aza-spiro[3.5]non-7-yl)-benzothiazol-5-yl]-amide], the IC50 was found to be 3080 nM.

Regarding `CN(c1nc2cc(NC(=O)c3ccc4c(c3)CCO4)ccc2s1)C1CCN(C2COC2)CC1` [Example 100, 2,3-Dihydro-benzofuran-5-carboxylic acid {2-[methyl-(1-oxetan-3-yl-piperidin-4-yl)-amino]-benzothiazol-5-yl}-amide], the IC50 is 3390 nM.

Turning to `O=C(Nc1ccc2sc(N3CCCC4(COC4)C3)nc2c1)c1ccc2c(c1)CCO2` [Example 101, 2,3-Dihydro-benzofuran-5-carboxylic acid [2-(2-oxa-6-aza-spiro[3.5]non-6-yl)-benzothiazol-5-yl]-amide], the IC50 came out at 2370 nM.

In the case of `O=C(Nc1ccc2sc(N3CCN(C4COC4)CC3)nc2c1)c1ccc2c(c1)CCO2` [Example 102, 2,3-Dihydro-benzofuran-5-carboxylic acid [2-(4-oxetan-3-yl-piperazin-1-yl)-benzothiazol-5-yl]-amide], the IC50 was 9170 nM.

As to `CN(c1nc2cc(NC(=O)c3ccc4c(c3)CCO4)ccc2s1)C1COC1` [Example 103, 2,3-Dihydro-benzofuran-5-carboxylic acid [2-(methyl-oxetan-3-yl-amino)-benzothiazol-5-yl]-amide], the IC50 was 3210 nM.

With `O=C(Nc1ccc2sc(N3CC4(CCO4)C3)nc2c1)c1ccc2c(c1)CCO2` [Example 104, 2,3-Dihydro-benzofuran-5-carboxylic acid [2-(1-oxa-6-aza-spiro[3.3]hept-6-yl)-benzothiazol-5-yl]-amide], the IC50 worked out at 6870 nM.
